Measured values: paper PMC11013444, “3-NAntC: A Potent Crotoxin B-Derived Peptide against the Triple-Negative MDA-MB-231 Breast Cancer Cell Line” (Molecules, 2024)
In brackets after ≈: the same amount, converted by molar mass. Entries after “also recorded” stand apart in the source; their conditions may differ. Read-outs that look alike come from different tables or passages of the source. Where no end group is shown, it is not given here.

Tests used:
HDFa cells [1] = experiment: cells; type: cell-based, human
Experimental: (§1) MCF-7 (Luminal breast cancer), MDA-MB-231 (TNBC), and MCF10A (non-tumor mammary gland epithelial cells) were purchased from the Rio de Janeiro Cell Bank (BCRJ, Rio de Janeiro, RJ, Brazil). HMEC (Primary Mammary Epithelial Cells) and HDFa (Human Dermal Fibroblasts) cell lines were purchased from Gibco (Waltham, MA, USA). MCF-7 and MDA-MB-231 were cultured in an RPMI 1640 medium supplemented with 10% heat-inactivated FBS, 1% glutamine, and 1% antibiotic/antimycotic solution. MCF10A and HMEC were cultured in MEBM medium supplemented with 100 ng/mL cholera toxin, 2.5 mM L-glutamine, 5% horse serum, 10 µg/mL human insulin, 0.5 µg/mL hydrocortisone, and 10 ng/mL EGF. All cells used in this study were incubated at 37 °C under 5% CO2 and checked for authenticity through polymerase chain reaction (PCR) followed by fragment analysis of eight highly polymorphic microsatellite loci (short tandem repeat—STR) plus gender determination with score ≥ 80%.
(§2) Stock solutions of Peptides 1 to 12, doxorubicin, and cisplatin were prepared in PBS (1X). Doxorubicin and cisplatin were stored at −20 °C and the peptide solutions were freshly prepared before each experiment. The final concentration of PBS (1X) in the culture medium was lower than 0.02%. All the negative controls contained this vehicle in the same culturing conditions as previously described.
(§3) Cell viability assay was conducted using the MTT method. For treatments lasting 24 h, the cells were seeded at the density of 2 × 10^4 cells/well into 96-well sterile plates, and for treatments lasting 48 or 72 h, the cell density was 1 × 10^4 cells/well. The following day, cells were treated by applying 200 μL/well of each agent (Peptides 1 to 12, doxorubicin, or cisplatin) at the desired concentration and incubated for the duration of the treatment. Afterward, cells were incubated with 20 μL/well of an MTT solution (5 mg/mL) for 2.5 h. Then, formazan salts were solubilized with 200 μL of DMSO: isopropanol (3:1) and agitated for at least 15 min at room temperature. The absorbance was measured at 570 nm with a spectrophotometer (Molecular devices Spectra Max Plus 384—San Jose, CA, USA), and relative cell viability was calculated. To evaluate the mechanism of cell death, cell cultures were treated with peptides in the presence or absence of 3-methyladenine (3-MA) ([…]), which is an autophagy inhibitor [37]. After treatment, the MTT assay was carried out as previously described.

MDA-MB-231 cells [2] = experiment: cells; type: cell-based, human; details: for IC50: Homo sapiens, MDA-MB-231, MTT, range 0.2–2.0 µg/mL, Figure 4, read-out: IC50 (cell viability)
Experimental: as §1, §2, §3

HMEC cells = type: cell-based, human; details: 72 h, 1 µg/mL
Experimental: as §1, §2, §3

MCF-7 cells = type: cell-based, human; details: for cell viability: 1 µg/mL
Experimental: as §1, §2, §3

MCF10A cells = type: cell-based, human
Experimental: as §1, §2, §3

MDA-MB-231 cells [3] = experiment: Cell proliferation assay (BrdU incorporation) in MDA-MB-231; type: cell-based, human; details: for IC50 (proliferation): range 0.2–1.0 µg/mL
Experimental: (§4) Cell proliferation was assessed with the BrdU method using the Cell Proliferation ELISA, BrdU (colorimetric) kit from Roche (Basel, Switzerland). Cell seeding and treatments were carried out as presented in Section 4.3. BrdU-labeling (20 μL/well) was added and incubated for 2.5 h. Then, ELISA was performed with an anti-BrdU-POD antibody, followed by washing and substrate solutions. The substrate was then developed for 15 min and the reaction was stopped with HCl (6M). The absorbance was measured at 495 nm with a spectrophotometer (Molecular devices Spectra Max Plus 384—San Jose, CA, USA), and the relative cell proliferation was calculated.

HDFa cells [4] = experiment: Cell proliferation assay (BrdU incorporation) in HDFa; type: cell-based, human; details: 72 hours, range 0.2–1.0 µg/mL
Experimental: as §4

MDA-MB-231 cells [5] = experiment: LDH release assay; type: cell-based, human; details: 0–1.0 µg/mL
Experimental: The CyQUANT LDH Cytotoxicity Assay (Thermo Fisher, Waltham, MA, USA) was employed to determine LDH release as a measure of plasma membrane damage, an important indicator of necrosis and pyroptosis. […] Cell seeding and treatments proceeded as presented in Section 4.3. After treatment incubation, 20 μL of supernatant was transferred to an EIA/RIA plate. The Reaction Mixture (20 μL/well) was added and incubated at room temperature for 30 min in the dark. Afterward, 60 μL/well of the Stop Solution was added and the absorbance of the reaction mixtures was quantified at both 490 nm and 680 nm with a spectrophotometer (Molecular devices Spectra Max Plus 384—San Jose, CA, USA). The absorbance at 680 nm was subtracted from the value at 490 nm, and then relative LDH release was calculated.

zebrafish embryos = experiment: In vivo zebrafish embryo toxicity study
Experimental: Transgenic Tg(fli1:EGFP)^y1 zebrafish embryos were raised at 28 °C for 48 h in E3 embryo medium 0.2 mM 1-Phenyl-2-Thiourea (PTU). […] Zebrafish embryos obtained at 48 h post fertilization (hpf), n = 20 embryos/group, were subcutaneously injected with the 3-NAntC peptide at 0.0015, 0.015, 0.15, 75, and 150 mg/mL diluted in E3 embryo medium containing 0.003% 1-phenyl-2-thiourea (PTU) and the embryos were maintained at 28.5 °C. Pictures were taken after 24, 48, and 72 h of peptide exposure and the percentage of live animals, as well as the percentage of live animals with malformations, were visually analyzed.

COc1cccc2c1C(=O)c1c(O)c3c(c(O)c1C2=O)C[C@@](O)(C(=O)CO)C[C@@H]3O[C@H]1C[C@H](N)[C@H](O)[C@H](C)O1 [Doxorubicin, doxorubicin, reference compound]
IC50 (HDFa cells [1]; Homo sapiens, HDFa, 24 hours, MTT, range 0.2–2.0 µg/mL, Figure 4, read-out: IC50 (cell viability)): 1.12 mg/L (≈ 2.06 µM) | IC50 (MDA-MB-231 cells [2]; 48 hours): 0.21 mg/L (≈ 0.386 µM) | IC50 (MDA-MB-231 cells [2]; 72 hours): 0.17 mg/L (≈ 0.313 µM)

CC[C@H](C)[C@H](NC(=O)[C@H](CCSC)NC(=O)[C@H](CCCCN)NC(=O)[C@H](CC(N)=O)NC(=O)[C@H](Cc1ccccc1)NC(=O)[C@H](CCC(N)=O)NC(=O)[C@H](CC(C)C)NC(=O)[C@H](CC(C)C)NC(=O)[C@@H](N)Cc1c[nH]cn1)C(=O)N[C@@H](CCCCN)C(=O)N[C@@H](Cc1ccccc1)C(=O)N[C@@H](CCC(=O)O)C(=O)N[C@H](C(=O)N[C@@H](CCCNC(=N)N)C(=O)N[C@@H](CCCCN)C(=O)N[C@@H](CC(N)=O)C(=O)N[C@@H](C)C(=O)N[C@H](C(=O)N1CCC[C@H]1C(=O)N[C@@H](Cc1ccccc1)C(=O)O)[C@@H](C)CC)[C@@H](C)O [Peptide 1]
cell viability (MDA-MB-231 cells [2]; 24 h, 2.5 µg/mL): 94.4 ± 4.6% | cell viability (MDA-MB-231 cells [2]; 48 h, 2.5 µg/mL): 90.7 ± 3.0%

CSCC[C@H](N)C(=O)N[C@@H](Cc1ccccc1)C(=O)N[C@@H](Cc1ccc(O)cc1)C(=O)N1CCC[C@H]1C(=O)N[C@@H](CC(=O)O)C(=O)N[C@@H](CO)C(=O)N[C@@H](CCCNC(=N)N)C(=O)N[C@@H](CS)C(=O)N[C@@H](CCCNC(=N)N)C(=O)NCC(=O)N1CCC[C@H]1C(=O)N[C@@H](CO)C(=O)N[C@@H](CCC(=O)O)C(=O)N[C@H](C(=O)O)[C@@H](C)O [Peptide 3-NAntC]
IC50 (cell viability) (HDFa cells [1]; 72 h): > 2 mg/L | cellular viability (HDFa cells [1]; 72 h, 1 µg/mL): higher than 80% | cell viability (MDA-MB-231 cells [2]; 24 h, 0.8 µg/mL): 77.5 ± 15.0% | IC50 (cell viability) (MDA-MB-231 cells [2]; 48 h): 1.44 mg/L (≈ 0.875 µM) | cell viability (MDA-MB-231 cells [2]; 48 h, 0.8 µg/mL): 60.8 ± 17.9% | cell viability (MDA-MB-231 cells [2]; 48 h, 1 µg/mL): 64.6 ± 14.5% | IC50 (cell viability) (MDA-MB-231 cells [2]; 72 h): 0.55 mg/L (≈ 0.334 µM) | cell viability (MDA-MB-231 cells [2]; 72 h, 1 µg/mL): 49.0 ± 17.5% | cell viability (HMEC cells): 98.2 ± 13.8% | IC50 (cell viability) (MCF-7 cells; 24 h): 2.31 mg/L (≈ 1.4 µM) | IC50 (cell viability) (MCF-7 cells; 48 h): 1.49 mg/L (≈ 0.905 µM) | cell viability (MCF-7 cells; 48 h): 54.7 ± 15.5% | IC50 (cell viability) (MCF-7 cells; 72 h): 1.49 mg/L (≈ 0.905 µM) | cell viability (MCF-7 cells; 72 h): 62.9 ± 26.0% | cell viability (MCF10A cells; 24 h, 2.5 µg/mL): 93.4 ± 7.4% | IC50 (cell viability) (MCF10A cells; 48 h): > 20 mg/L | cell viability (MCF10A cells; 48 h, 2.5 µg/mL): 80.5 ± 5.3% | cell viability (MCF10A cells; 48 h, 20 µg/mL): 65.9 ± 10.3% | maximum proliferation inhibition (MDA-MB-231 cells [3]; 0.6 µg/mL, 48 h, mean ± SEM): 71.1 ± 27.1% | IC50 (proliferation) (MDA-MB-231 cells [3]; 24h): 0.46 mg/L (≈ 0.279 µM) | IC50 (proliferation) (MDA-MB-231 cells [3]; 48h): 0.46 mg/L (≈ 0.279 µM) | IC50 (proliferation) (MDA-MB-231 cells [3]; 72h): 0.37 mg/L (≈ 0.225 µM) | IC50 (proliferation) (HDFa cells [4]): > 1 mg/L | LDH release (MDA-MB-231 cells [5]; 24 and 48 h treatments): did not consistently increase LDH release | LDH release (MDA-MB-231 cells [5]; 72 h): increase in LDH release | lethality (zebrafish embryos; 150 mg/mL, after 48 and 72 h of treatment, n = 20 embryos/group): 45% | surviving embryos exhibiting malformations (zebrafish embryos; 150 mg/mL, n = 20 embryos/group): 50–60% | lethality and non-lethal events (malformations) (zebrafish embryos; 1.5 to 150 µg/mL and 75 mg/mL, embryos 48 hpf, n = 20 embryos/group, 24, 48, 72 h): no lethal effects; also recorded: did not show lethality or significant non-lethal events (malformations) | LD50 (dose that kills 50% of the embryos) (zebrafish embryos; doses up to 150 mg/mL): could not be determined

AIPFYAFY [Peptide 2]
IC50 (cell viability) (MDA-MB-231 cells [2]; 24 h): > 20 mg/L | cell viability (MDA-MB-231 cells [2]; 24 h, 2.5 µg/mL): 81.6 ± 5.0% | IC50 (cell viability) (MDA-MB-231 cells [2]; 48 h): > 20 mg/L | cell viability (MDA-MB-231 cells [2]; 48 h, 2.5 µg/mL): 85.0 ± 7.9% | IC50 (cell viability) (MCF10A cells; 48 h): > 20 mg/L | cell viability (MCF10A cells; 48 h, 2.5 µg/mL): 85.7 ± 11.2%
